Values after ≈ are worked out from the molar mass of the structure shown.

As a reminder, the EC50 is the concentration at which the effect is half-maximal. As a reminder, the IC50 is the point on the concentration scale where inhibition reaches its midpoint.

The target of data set [1] is T1, human NOD2 (Homo sapiens, UniProt Q9HC29).
T1 construct: host or cells: HEK-Blue Human NOD2 reporter cells (HEK 293)
Briefly: NOD2 specific reporter assay (SEAP, Quanti blue). Type of data set: cell-based. As to conditions: HEK-Blue Human NOD2 reporter cells, 24-72 hrs, read-out: EC50 (half maximal response) (converted). The protocol: Muramyl dipeptide molecules have the ability to bind to NOD2 receptors that are present on the surface of the immune cells, so as to stimulate immune response. NOD2 (Nucleotide oligomerization domain) receptor is an intracellular pattern recognition receptor (PRRs) recognizes muramyl dipeptide derivatives and stimulates cascade of signaling pathways to induce immune response. […] These cells were prepared by co-transfection of human NOD2 gene and codon-optimized SEAP (secreted embryonic alkaline phosphatase) reporter gene into HEK 293 cells. Upon stimulation of cells with muramyl dipeptide derivative, NFkB gets activated, which inturn secrets SEAP and it was measured in cell supernatant. Experimental details of this in-vitro assay are given as example 2.1.
HEK—Blue Human NOD2 reporter cells (5×10^4/well) were plated and cultured overnight in a humidified CO2 incubator at 37° C. Next day, cells were treated with various concentrations of MDP-ET, (0.001 mg/ml to 1 mg/ml) and cultured for 24-72 hrs. Supernatant was collected and treated with Quanti blue detection reagent at 37° C. for 15-30 min. Absorbance was read at 630 nm. […] To generate dose response curve, highest absorbance shown at tested concentration was taken as 100% response and the least absorbance was taken as 0% response. […]
(In general: Reporter assays use an easily measured gene product as a stand-in for the process of interest.)

The test system of data set [2] is J774.2A cells. Briefly: Cytotoxicity assay (MTT). As to conditions: 24 hrs, read-out: IC50 (50% cell death or toxicity). Type of data set: cell-based. Here is the method:
Details of an assay are as explained in example 2.2.
J774.2A cells (2×10^4/well) were plated and incubated overnight. Next day, cells were treated with various concentrations of MDP-ET (10 fold dilutions with a concentration ranging from 0.005 mg/ml to 0.5 mg/ml & 2 mg/ml) and cultured for 24 hrs. Supernatant was discarded and cells were treated with 100 μl of MTT [3-(4,5-Dimethylthiazol-2-yl)-2,5-Diphenyltetrazolium Bromide] (5 mg/ml) and incubated for 3-4 hrs until formozan crystals were formed. Later, supernatant was discarded and crystals were dissolved with DMSO for 5-10 min. Absorbance was read at 540 nm. FIG. 2 represents cell toxicity effect of MDP-ET. X-axis represents concentration in log scale and Y-axis represents % toxicity.

Data set [3] relates to splenocytes. Briefly: Splenocyte proliferation of immunized mice (MTT). Type of data set: in vivo. As to conditions: LPS and Con A. Here is the method: Spleens were isolated from immunized mice and were processed to single cell suspension. 96 well flat bottom Micro titer plates were seeded with 1×10^5 cells/well with RPMI1640 media. Cells were treated with OVA. Con A (2 μg/mL) and LPS (10 μg/mL) or medium with a final volume of 200 μl. Plates were incubated at 37° C. with 5% CO2 in an incubator. After 48 h of incubation 20 μl of Triazolyl blue Tetrazolium Bromide (MTT) solution was added to each well, incubated for next 4 h. Untransformed MTT was removed from each well by aspirating the supernatant (180 μL) and replaced with DMSO. The absorbance was read at 570 nm after 15 min.
Immunostimulating substances act through specific (antigen-dependent) T lymphocytes, B lymphocytes, and dendritic cells and also through non-specific mechanisms of action (antigen-independent) that involves granulocytes, macrophages, and NK cells. Being a secondary lymphoid organ, spleen contains a heterogeneous population of lymphocytes to examine the immunostimulant activity. However, proliferations of immune cells like T and B cells are the benchmark for immune potentiation. Mice were immunized with or without OVA or in combination with MDP and MDP-ET. Type of immune response in all treated groups was measured with LPS and Con-A splenocyte proliferation assays depicted in Figure: 3. […] This is essential for B cell expansion.

Data set [4] has as its system Total IgG1 and IgG2a antibodies. Briefly: Total IgG1 and IgG2a in sera of OVA-immunized mice (sandwich ELISA). As to conditions: OVA-immunized mice. It is filed as in vivo, BALB/c mice. Here is the method: Male BALB/c mice were immunized subcutaneously with OVA 100 μg alone or with OVA 100 μg dissolved in saline containing the MDP or MDP-ET analogues (7.5, 15 or 30 μg) on Days 1 and 15. Sera were collected 2 weeks after the last immunization. Total IgG1 and IgG2a antibodies in the sera were measured by Sandwich ELISA.
Measurement of total IgG subtypes such as IgG1 and IgG2a are useful to assess type immunity produced. In mice, IgG1 is integrated with Th2-type response, while Th1-type response is integrated with the production of IgG2a, IgG2b, and IgG3 antibodies. Antibody subclass is indispensable for complement fixation and provides protection. IgG2a and IgG2b can fix the complement stronger than IgG1. Vaccine adjuvants showing broad subclass distribution is beneficial against pathogens. […] But, it didn't induce much significant IgG1 response i.e., Th2 type, than MDP+OVA group.
A general note: In an ELISA, binding on a coated surface is turned into a signal by an enzyme label.

The test system of data set [5] is rPvRII specific IgG antibody. Briefly: Endpoint titer of rPvRII specific IgG by ELISA after immunization. It is filed as in vivo, mouse.
Data set [6] deals with Wistar rats. Briefly: Maximum Tolerated Dose test. Type of data set: in vivo. The protocol: This particular beneficial property was evidenced by Maximum Tolerated Dose test done using rat as an animal model.
Maximum Tolerated Dose test: Wistar rats (n=6, 3M & 3F) were administered intramuscularly (i.m) with MDP-ET containing fixed adjuvant dose of 10, 50 and 100 μg/animal/200 μl in an ascending manner. Animals were observed daily for a period of 14 days for clinical signs & mortality. Body weight was measured daily. Food and water consumed by animals were also monitored daily for any abnormalities & food and water intake per animal was also calculated. Body temperature was measured for every 4 hours up to 24 hrs, later once in daily up to 7 days and then followed by alternate day up to day 14. Rats were sacrificed on day 14 and organs/tissues such as site of injection, spleen, thymus, brain, lungs, Heart, liver, Kidney were collected and done macroscopic examination. […] It indicates rats are tolerable even at high dose (100 μg/animal). Blood was collected between 24-36 hrs were tested for CRP levels, after the injection. Higher (600-1000 μg/ml, normal range 200-550 μg/ml in rats) CRP levels were found at higher dose (100 μg/animal).
However, due to moderate or high levels of IL-6 levels as found in In-vitro pyrogenicity test, it can be concluded that MDP-ET may be pyrogenic at tested high concentration (100 μg/animal), which in turn correlated with high levels of CRP found immediately after giving dose.

T1 sequence (Q9HC29 whole entry): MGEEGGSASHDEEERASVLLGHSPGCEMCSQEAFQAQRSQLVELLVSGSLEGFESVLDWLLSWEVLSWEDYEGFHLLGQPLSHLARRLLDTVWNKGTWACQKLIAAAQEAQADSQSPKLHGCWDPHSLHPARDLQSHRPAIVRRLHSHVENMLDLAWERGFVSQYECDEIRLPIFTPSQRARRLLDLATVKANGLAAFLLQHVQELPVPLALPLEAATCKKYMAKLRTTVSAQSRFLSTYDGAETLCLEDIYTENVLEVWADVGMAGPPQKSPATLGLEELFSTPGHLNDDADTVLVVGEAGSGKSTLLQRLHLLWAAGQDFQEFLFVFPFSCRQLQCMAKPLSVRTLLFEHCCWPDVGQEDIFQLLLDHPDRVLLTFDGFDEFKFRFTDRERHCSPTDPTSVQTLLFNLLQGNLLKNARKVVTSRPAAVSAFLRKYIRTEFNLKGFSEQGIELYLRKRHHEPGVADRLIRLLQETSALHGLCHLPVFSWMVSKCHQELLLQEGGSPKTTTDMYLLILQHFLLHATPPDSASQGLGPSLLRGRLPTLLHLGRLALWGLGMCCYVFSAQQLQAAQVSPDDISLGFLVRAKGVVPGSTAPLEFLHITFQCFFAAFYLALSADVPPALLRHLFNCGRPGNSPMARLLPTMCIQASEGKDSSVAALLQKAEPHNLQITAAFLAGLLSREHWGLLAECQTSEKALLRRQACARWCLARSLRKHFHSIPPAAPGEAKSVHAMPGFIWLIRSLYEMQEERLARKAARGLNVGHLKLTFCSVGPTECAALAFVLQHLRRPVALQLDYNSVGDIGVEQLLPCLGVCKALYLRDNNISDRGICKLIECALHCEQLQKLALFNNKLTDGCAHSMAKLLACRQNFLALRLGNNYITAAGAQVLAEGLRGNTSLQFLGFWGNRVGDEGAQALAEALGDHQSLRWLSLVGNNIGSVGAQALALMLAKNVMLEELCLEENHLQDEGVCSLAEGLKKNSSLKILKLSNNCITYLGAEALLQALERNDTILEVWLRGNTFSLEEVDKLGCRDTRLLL

For `CCOC(=O)N[C@H]1C(O)O[C@H](CO)[C@@H](O)[C@@H]1O[C@H](C)C(=O)N[C@@H](C)C(=O)N[C@H](CCC(=O)O)C(N)=O` (stereo partly drawn) [MDP-ET, (4R)-5-amino-4-((2S)-2-((2R)-2-(((3R,4R,5S,6R)-3-((ethoxycarbonyl)amino)-2,5-dihydroxy-6-(hydroxymethyl)tetrahydro-2H-pyran-4-yl)oxy)propanamido)propanamido)-5-oxopentanoic acid], the EC50 in data set [1] is 421 nM. For the same compound, the IC50 in data set [2] was 410 µg/mL (≈ 785 µM). For the same compound, in data set [3], the Splenocyte proliferation result is on record as “inducing the LPS mediated splenocyte proliferation”. Further, in data set [4], the “Th1:Th2 index from antibody titer of ova specific IgG subclasses” value was determined as 1. Besides, the “increase of rPvRII specific IgG antibody titer versus rPvRII alone” value in data set [5] (MDP-ET 10 μg/mouse) is recorded as 4 fold. Also, the “rPvRII specific IgG antibody endpoint titer” value in data set [5] (MDP-ET 10 μg/mouse + rPvRII) is reported as 51200 dilution. Also, the CRP levels in data set [6] (100 μg/animal, blood 24-36 hrs after injection, normal range 200-550 μg/ml in rats) is 600 to 1000 µg/mL; in data set [6] (after 14 days), “normal”. The compound also had a tolerated dose in data set [6] (Wistar rats, i.m., 14 days observation) of no less than 100 μg/rat. Besides, in data set [6] (day 14, site of injection, spleen, thymus, brain, lungs, heart, liver, kidney), the “macroscopic examination of organs/tissues” value was “No significant lesions or abnormalities”. Besides, the clinical signs result in data set [6] (even at tested high dose (100 μg/animal), 14 days) is “no significant clinical signs”. Also, the weight gain entry in data set [6] (high dose (100 μg/animal), compared to untreated animals) is on record as “weight gain is less”. Moreover, in data set [6] (i.m. 10, 50 and 100 μg/animal, 14 days), the mortality entry is listed as “no mortality”. For the same compound, the body temperature entry in data set [6] (up to 14 days) is given as “no temperature raise”.
